Here are results for six molecules from patent publication US8329672B2, “Oral and/or topical compositions comprising prebiotics and fatty acid” (Cognis IP Management GmbH, priority 2004, dated 2012).

For one experiment, the system named is Lactobacterium. The experiment can be described thus: Stimulation of growth of lactobacilli in vitro (enumeration in human faecal homogenate culture). The format is cell-based, Lactobacillus spp. The note with it: human faecal homogenate in diluted WC broth, incubated up to 24 hours, control 2.8 × 10^5. On the procedure:
(§1) The stimulation of growth of microorganisms has been studied by enumerating bifidobacterium and lactobacilli in vitro in the presence of various test substances. More specifically, aliquots (1 mL) of human faecal homogenates (10 g per 100 mL diluent) were added to diluted WC broth (diluted 50:50 with 0.05M phosphate buffer) to which were added the test mixtures and a lactobacillus or bifidobacterium strain. For each of the combinations, parallel tubes were prepared with one set being inoculated with Bifidobacterium spp or Lactobacillus spp. All mixtures were then incubated for up to 24 hours and bacterial numbers enumerated.

Another experiment concerns Bifidobacterium. The experiment can be described thus: Stimulation of growth of Bifidobacterium in vitro (enumeration in human faecal homogenate culture). The format is cell-based, Bifidobacterium spp. Particulars: human faecal homogenate in diluted WC broth, incubated up to 24 hours, control 1.0 × 10^6. The method, then:
as §1

As to Lactolin [C3], the “Bacterial numbers (CFU/ml)” value in the experiment on Lactobacterium (1% prebiotic alone) was determined as 1.5 × × 10^6 CFU/ml; in the experiment with Bifidobacterium (1% prebiotic alone) it was 1.6 × × 10^7 CFU/ml.
Take Betaglucan [C4]: the “Bacterial numbers (CFU/ml)” value in the experiment with Lactobacterium (1% prebiotic alone) is recorded as 1.1 × × 10^6 CFU/ml; in the experiment with Bifidobacterium (1% prebiotic alone), 1.2 × × 10^7 CFU/ml.
In the case of CLA-SE [C7], the “Bacterial numbers (CFU/ml)” value in the experiment with Lactobacterium (1% fatty acid alone) amounted to 4.4 × × 10^5 CFU/ml; in the experiment with Bifidobacterium (1% fatty acid alone), 2.9 × × 10^6 CFU/ml.
Take `OC[C@H]1O[C@@H](O[C@H]2[C@H](O)[C@@H](O)[C@@H](O[C@]3(CO)O[C@H](CO)[C@@H](O)[C@@H]3O)O[C@@H]2CO)[C@H](O)[C@@H](O)[C@H]1O` [C2, Lactosucrose]: the “Bacterial numbers (CFU/ml)” value in the experiment on Lactobacterium (1% prebiotic alone) turned out to be 1.1 × × 10^6 CFU/ml; in the experiment on Bifidobacterium (1% prebiotic alone), 1.1 × × 10^7 CFU/ml.
As to CLA-TG [C6], the results for the “Bacterial numbers (CFU/ml)” value in the experiment on Lactobacterium (1% fatty acid alone) and in the experiment on Bifidobacterium (1% fatty acid alone) were 4.4 × × 10^5 CFU/ml and 2.1 × × 10^6 CFU/ml, respectively.
In the case of CLA [C5], the “Bacterial numbers (CFU/ml)” value with Lactobacterium (1% fatty acid alone) stood at 4.2 × × 10^5 CFU/ml; with Bifidobacterium (1% fatty acid alone), 3.5 × × 10^6 CFU/ml.
